This note sets out measurements from patent US10253039B2, “Inhibitors of bacterial DNA gyrase with efficacy against gram-negative bacteria” (priority 2014, dated 2019).

Common to all, as to type: cell-based
One assay deals with E. coli BW25113. Description: MIC, microdilution in 96-well plates. As to conditions: Escherichia coli, read-out: MIC. The procedure: (§1) A microdilution method in 96-well plates was used and the MIC protocol established by the Clinical Laboratory Standards Institute was followed. From a growing subculture, a 1:10000 inoculum of each strain in Luria-Bertani media was prepared and aliquoted 100 μL in 4 columns of wells, except for the top row wells, which contained 200 μL of inoculum. A solution of gyramide C2 was aliquoted into 3 of the wells containing 200 μL and DMSO was added to the 4th well. The liquid in each of wells was mixed with a multi-channel pipet and 100 μL was transferred to the next well and mixed. The 2-fold dilution was continued down the 96-well plate until 100 μL was left, which was discarded. The plates were incubated at 37° C. with shaking for 16-18 hours. The MIC was determined as the lowest concentration that inhibited growth and had no turbidity by visual inspection.
(§2) Minimum inhibitory concentrations of various gyramide compounds against 20 strains of bacteria were determined using the procedure described above.
A general note: Dilution methods test growth across graded concentrations, often in twofold steps.

A further assay has as its system Edwardsiella tarda. Put plainly: MIC, microdilution in 96-well plates. The procedure:
as §1, §2

The test system of assay [1] is Staphylococcus saprophyticus subsp. saprophyticus. Put plainly: MIC, 20-strain panel. The method, then: as §1, §2
The test system of assay [2] is Salmonella enterica subsp. enterica typhimurium. Description: MIC, 20-strain panel. The procedure:
as §1, §2

Assay [3] relates to Klebsiella pneumoniae subsp. pneumoniae. Description: MIC, 20-strain panel. The method, then: as §1, §2
The test system of another assay is E. coli JW5503 (deltolC). Description: MIC, 20-strain panel. As to conditions: Escherichia coli. The procedure:
as §1, §2

For assay [4], the system named is Staphylococcus aureus subsp. aureus. Put plainly: MIC, 20-strain panel. To be noted: read-out: MIC. The method, then:
as §1, §2

The subject of a further assay is Streptococcus agalactiae. Description: MIC, 20-strain panel. The procedure: as §1, §2
Another assay relates to Streptococcus pyogenes. Put plainly: MIC, 20-strain panel. The procedure: as §1, §2
Assay [5] relates to Staphylococcus epidermidis. Description: MIC, 20-strain panel. The procedure: as §1, §2
A further assay has as its system Shigella flexneri. Description: MIC, 20-strain panel. The method, then: as §1, §2
The subject of another assay is E. coli MG1655. Put plainly: MIC, 20-strain panel. To be noted: Escherichia coli, read-out: MIC. The procedure: as §1, §2
The mark [6] stands for this setting: F: Salmonella enterica subsp. enterica Typhimurium.
The mark [7] stands for this setting: E: Klebsiella pneumoniae subsp. pneumoniae.
Where [8] appears, read: H: Staphylococcus aureus subsp. aureus.
Where [9] appears, read: Salmonella enterica subsp. enterica Typhimurium.
Setting [10] is: Klebsiella pneumoniae subsp. pneumoniae.
[11] abbreviates: Staphylococcus aureus subsp. aureus.

Structures are written as SMILES. In brackets after ≈: the same amount, converted by molar mass. Where two headings read alike, the source gives them in different places.

In general, MIC refers to the lowest concentration that inhibits growth of the organism. Turning to `O=S(=O)(N[C@@H]1CCN(Cc2ccc(-c3cccc(Cl)c3)cc2)C1)c1cccc(OC(F)(F)F)c1` [Compound 28], the MIC in the assay on E. coli BW25113 (BW25113, B: E. coli BW25113) was greater than 8 µg/mL; in the assay with Edwardsiella tarda (D: Edwardsiella tarda), greater than 8 µg/mL; in assay [1], greater than 8 µg/mL; in [2] (setting [6]) it was greater than 8 µg/mL; in assay [3] (setting [7]), greater than 8 µg/mL; in the assay on E. coli JW5503 (deltolC) (C: E. coli JW5503 (deltolC)), greater than 8 µg/mL. Also, the MIC in assay [4] (setting [8]) is greater than 8 µg/mL; with Streptococcus agalactiae, greater than 8 µg/mL; against Streptococcus pyogenes, roughly 8 µg/mL (≈ 15.7 µM); in [5] it was 2 µg/mL (≈ 3.91 µM); against Shigella flexneri (G: Shigella flexneri) it was greater than 8 µg/mL; with E. coli MG1655 (MG1655, A: E. coli MG1655), greater than 8 µg/mL.
Regarding `COc1cc(CN2CC[C@@H](NS(=O)(=O)c3cccc(C#N)c3)C2)ccc1OC(C)C` [Compound 155], the MIC in the assay with E. coli BW25113 (BW25113, E. coli BW25113) is greater than 8 µg/mL; in the assay on Edwardsiella tarda it was greater than 8 µg/mL; in assay [1], greater than 8 µg/mL; in assay [2] (setting [9]), greater than 8 µg/mL; in [3] (setting [10]), greater than 8 µg/mL; with E. coli JW5503 (deltolC) (E. coli JW5503 (deltolC)), greater than 8 µg/mL. Besides, the MIC is greater than 8 µg/mL in [4] (setting [11]); greater than 8 µg/mL against Streptococcus agalactiae; greater than 8 µg/mL in the assay on Streptococcus pyogenes; greater than 8 µg/mL in assay [5]; greater than 8 µg/mL in the assay with Shigella flexneri; greater than 8 µg/mL in the assay with E. coli MG1655 (MG1655, E. coli MG1655).
For `N#Cc1cccc(S(=O)(=O)N[C@@H]2CCN(Cc3ccn(-c4ccccc4)n3)C2)c1` [Compound 126], the MIC in the assay with E. coli BW25113 (BW25113, B: E. coli BW25113) is greater than 8 µg/mL; against Edwardsiella tarda (D: Edwardsiella tarda), greater than 8 µg/mL; in [1], greater than 8 µg/mL; in assay [2] (setting [6]), greater than 8 µg/mL; in assay [3] (setting [7]), greater than 8 µg/mL; against E. coli JW5503 (deltolC) (C: E. coli JW5503 (deltolC)), greater than 8 µg/mL. For the same compound, the minimal inhibitory concentration (MIC) in assay [4] (setting [8]) is greater than 8 µg/mL; against Streptococcus agalactiae, greater than 8 µg/mL; against Streptococcus pyogenes, greater than 8 µg/mL; in assay [5] it was greater than 8 µg/mL; with Shigella flexneri (G: Shigella flexneri), greater than 8 µg/mL; with E. coli MG1655 (MG1655, A: E. coli MG1655) it was greater than 8 µg/mL.
On to `O=S(=O)(N[C@@H]1CCN(Cc2ccc(OC3CC3)cc2)C1)c1cncc(F)c1` [Compound 154], for which the minimum inhibitory concentration (MIC) with E. coli BW25113 (BW25113, E. coli BW25113) was greater than 8 µg/mL; in the assay with Edwardsiella tarda, greater than 8 µg/mL; in assay [1] it was greater than 8 µg/mL; in assay [2] (setting [9]), greater than 8 µg/mL; in assay [3] (setting [10]) it was greater than 8 µg/mL; with E. coli JW5503 (deltolC) (E. coli JW5503 (deltolC)), greater than 8 µg/mL. Moreover, the minimum inhibitory concentration (MIC) in [4] (setting [11]) is greater than 8 µg/mL; in the assay with Streptococcus agalactiae it was greater than 8 µg/mL; in the assay on Streptococcus pyogenes, greater than 8 µg/mL; in [5], greater than 8 µg/mL; in the assay with Shigella flexneri, greater than 8 µg/mL; in the assay with E. coli MG1655 (MG1655, E. coli MG1655), greater than 8 µg/mL.
As for `COc1cc(CN2CC[C@@H](NS(=O)(=O)c3cccc(OC(F)(F)F)c3)C2)ccc1OC(C)C` [Compound 88], the minimal inhibitory concentration (MIC) was greater than 8 µg/mL in the assay on E. coli BW25113 (BW25113, B: E. coli BW25113); greater than 8 µg/mL in the assay with Edwardsiella tarda (D: Edwardsiella tarda); greater than 8 µg/mL in assay [1]; greater than 8 µg/mL in assay [2] (setting [6]); greater than 8 µg/mL in [3] (setting [7]); greater than 8 µg/mL with E. coli JW5503 (deltolC) (C: E. coli JW5503 (deltolC)). Also, the MIC was greater than 8 µg/mL in [4] (setting [8]); greater than 8 µg/mL against Streptococcus agalactiae; greater than 8 µg/mL against Streptococcus pyogenes; greater than 8 µg/mL in assay [5]; greater than 8 µg/mL in the assay on Shigella flexneri (G: Shigella flexneri); greater than 8 µg/mL in the assay with E. coli MG1655 (MG1655, A: E. coli MG1655).
Consider `N#Cc1cccc(S(=O)(=O)N[C@@H]2CCN(Cc3ccc(-c4cccc(Cl)c4)cc3)C2)c1` [Compound 24], for which the MIC in the assay on E. coli BW25113 (BW25113, B: E. coli BW25113) is greater than 8 µg/mL; in the assay with Edwardsiella tarda (D: Edwardsiella tarda), greater than 8 µg/mL; in assay [1] it was greater than 8 µg/mL; in [2] (setting [6]) it was greater than 8 µg/mL; in assay [3] (setting [7]), greater than 8 µg/mL; in the assay with E. coli JW5503 (deltolC) (C: E. coli JW5503 (deltolC)) it was 4 µg/mL (≈ 8.85 µM). The MIC in assay [4] (setting [8]) was greater than 8 µg/mL; against Streptococcus agalactiae it was greater than 8 µg/mL; in the assay on Streptococcus pyogenes, greater than 8 µg/mL; in assay [5], greater than 8 µg/mL; in the assay with Shigella flexneri (G: Shigella flexneri), greater than 8 µg/mL; in the assay on E. coli MG1655 (MG1655, A: E. coli MG1655) it was greater than 8 µg/mL.
As for `O=S(=O)(N[C@@H]1CCN(Cc2ccc(OC3CC3)cc2)C1)c1cc(C(F)(F)F)cc(C(F)(F)F)c1` [Compound 128], the minimal inhibitory concentration (MIC) was greater than 8 µg/mL in the assay with E. coli BW25113 (BW25113, B: E. coli BW25113); greater than 8 µg/mL in the assay on Edwardsiella tarda (D: Edwardsiella tarda); greater than 8 µg/mL in assay [1]; greater than 8 µg/mL in [2] (setting [6]); greater than 8 µg/mL in [3] (setting [7]); 8 µg/mL (≈ 15.7 µM) in the assay on E. coli JW5503 (deltolC) (C: E. coli JW5503 (deltolC)). Further, the MIC was greater than 8 µg/mL in assay [4] (setting [8]); greater than 8 µg/mL against Streptococcus agalactiae; greater than 8 µg/mL in the assay with Streptococcus pyogenes; greater than 8 µg/mL in [5]; greater than 8 µg/mL against Shigella flexneri (G: Shigella flexneri); greater than 8 µg/mL with E. coli MG1655 (MG1655, A: E. coli MG1655).
